The results in this text go back to paper PMC5000617, “Antiproliferative and Pro-Apoptotic Effect of Novel Nitro-Substituted Hydroxynaphthanilides on Human Cancer Cell Lines” (International Journal of Molecular Sciences, 2016).

Holding throughout (format): cell-based, human
Assay [1] deals with THP-1 cells. Put plainly: WST-1 cell proliferation assay, THP-1. As to the method: (§1) Initially, we examined the effect of six nitro-substituted hydroxynaphthanilides on the proliferation of human leukaemia and breast carcinoma cell lines, using Water Soluble Tetrazolium Salts-1 (WST-1) assay. For such analyses, THP-1 and MCF-7 cells were treated with the compounds at concentrations ranging from 0.5 to 20 μM for 24 h. […] The inhibitory effect of 2 and 6 was statistically significant (p < 0.001) starting from the concentration of 2.5 and 5 μM in THP-1 and MCF-7 cells, respectively. From the concentration-response curves, the IC50 values were determined.
(§2) THP-1 human monocytic leukemia cell line, MCF-7 human breast adenocarcinoma cells and 3T3-L1 mouse embryonic fibroblast were purchased from the European Collection of Cell Cultures (ECACC, Salisbury, UK). Cells were routinely tested for the absence of mycoplasma (Hoechst 33258 staining method). THP-1 cells were maintained in RPMI 1640 culture medium containing 2 mM L-glutamine; MCF-7 and 3T3-L1 cells were cultured in DMEM medium. All of the culture media were supplemented with 10% heat-inactivated FBS and antibiotics (100 U/mL penicillin and 100 μg/mL streptomycin). Cells were maintained at 37 °C in a humidified atmosphere containing 5% CO2.
(§3) Cell proliferation was evaluated using Cell Proliferation Reagent WST-1 (2-(4-iodophenyl)-3-(4-nitrophenyl)-5-(2,4-disulfophenyl)-2H-tetrazolium) (Roche Diagnostics, Mannheim, Germany) according to the manufacturer´s instructions. THP-1 (5 × 10^4 cells/100 μL culture medium per well), MCF-7 cells (1 × 10^4 cells/100 μL per well), and 3T3-L1 (2.5 × 10^3 cells/100 μL per well) were cultured in 96-well plates in triplicate. The measurement was performed using Synergy 2 Multi-Mode Microplate Reader (BioTek, Winooski, VT, USA) after 24 h incubation of cells with tested compounds dissolved in DMSO and subsequently in RPMI 1640 to final concentration ranging 0.5–20 μM in the assays. Cell viability was assessed by dye exclusion test. THP-1 (2 × 10^5 cells/mL per well) and MCF-7 cells (8 × 10^4 cells/mL per well) were incubated in 24-well plates with the indicated concentrations of compounds for 24 h. The number of viable cells was determined using hemocytometer after their staining with a solution of erythrosin B (0.1% erythrosin B (w/v) in PBS). The assays were conducted in triplicate. The IC50 and LC50 values were calculated from fitted concentration-response curves using GraphPad Prism 5.00 software (GraphPad Software, San Diego, CA, USA).

Assay [2] deals with caspase 3. Description: Western blot of caspase 3 in THP-1 cells. Conditions: THP-1, 10 μM, 24 h. As to the method: (§4) Most of the apoptotic signalling pathways are controlled by caspases that belong to a group of cysteine proteases. To assess whether compound 2 affects these signalling cascades and which pathway is activated (intrinsic or extrinsic), the activities of caspase 3, caspase 9, and caspase 8 were evaluated using Western blot analysis.
(§5) For Western blotting, cells were washed with PBS and lysed in lysis buffer (100 mM Tris-HCl, pH = 6.8; 20% glycerol; 1% SDS) containing protease and phosphatase inhibitor cocktails. Protein concentration was measured using Roti®-Quant universal (Carl Roth, Karsruhe, Germany) according to the manufacturer’s instructions. Cell lysates were supplemented with bromophenol blue (final concentration 0.01% (w/v)) and β-mercaptoethanol (final concentration 1% (v/v)) prior to being heated for 5 min at 95 °C. Equal amounts of protein (10 μg) were loaded into a 12% polyacrylamide gel, separated by SDS-polyacrylamide gel electrophoresis and subsequently electrotransferred onto nitrocellulose membranes. Reversible Ponceau S. staining was performed to assess equal sample loading. […] The intensity of bands was semi-quantitatively analysed using the ImageJ software (National Institute of Mental Health, Bethesda, MD, USA).

The subject of assay [3] is caspase 9. Description: Western blot of caspase 9 in THP-1 cells. To be noted: THP-1, 24 h, most pronounced at 10 μM. The procedure: as §4, §5
In assay [4] the test system is MCF-7 cells. Put plainly: Flow cytometric cell cycle analysis (PI), MCF-7. Conditions: MCF-7, 24 h. As to the method: (§6) In order to determine at which stage of the cell cycle these compounds induce cell growth inhibition, flow cytometric analyses of cell cycle profiles in THP-1 and MCF-7 cell lines were performed. […] Therefore, THP-1 and MCF-7 cells were treated for 24 h with the compounds at concentrations of 2.5, 5, and 10 μM, respectively. In general, we detected a qualitatively similar effect on the distribution of cells in cell cycle phases following the treatment with compounds 2 and 6 in both leukaemia and breast carcinoma cells. […] This was in concert with a simultaneous decrease in the number of cells observed in the S phase compared to the drug-free control, while the percentage of cells in the G2/M phase remained unchanged.
(§7) THP-1 and sub-confluent MCF-7 cells were treated and subsequently incubated with indicated concentrations of compounds 2 and 6 for 24 h. After the incubation, cells were washed twice in PBS (pH 7.4), fixed in 70% ethanol and stored at −20 °C overnight. Fixed cells were collected by centrifugation, and supernatant was discarded. The cell pellet was washed twice with PBS and incubated with RNaseA (0.02 mg/mL) and 0.05% (v/v) Triton X-100 in PBS for 30 min at 37 °C. After the nuclei staining with propidium iodide (PI) (0.04 mg/mL), the cell cycle distribution was analysed using a flow cytometer Cell Lab Quanta SC (Beckman Coulter, Brea, CA, USA). The quantification of cell cycle distribution was carried out using software MultiCycle AV (Phoenix Flow System, San Diego, CA, USA). A total number of 2 × 10^4 cells was analysed per sample.

For assay [5], the system named is THP-1 cells. Put plainly: Flow cytometric cell cycle analysis (PI), THP-1. As to the method: as §6, §7
Assay [6] relates to cyclin B1. Put plainly: Western blot of cyclin B1 in THP-1 cells. To be noted: THP-1, 24 h. The procedure:
(§8) Additionally, the cell cycle analysis allows determining the presence of a subdiploid cell population as a characteristic marker of cells with fractional DNA content. A significant increase (p < 0.001) of the sub-G1 peak was found only after the treatment with 5 µM of compound 2 in THP-1 cells, where an approximately eight-fold increase was observed compared to the drug-free control (Figure 4).
as §5

Assay [7] deals with cyclin B1. Description: Western blot of cyclin B1 in MCF-7 cells. To be noted: MCF-7, 24 h. As to the method:
as §8, §5

Assay [8] concerns MCF-7 cells. Description: WST-1 cell proliferation assay, MCF-7. As to the method:
as §1, §2, §3

In assay [9] the test system is cyclin E1. Put plainly: Western blot of cyclin E1 in MCF-7 cells. Conditions: MCF-7, 24 h. The procedure:
as §8, §5

For `O=C(Nc1cccc([N+](=O)[O-])c1)c1cc2ccccc2cc1O` [Compound 2, 3-hydroxy-N-(3-nitrophenyl)naphthalene-2-carboxamide], the IC50 in assay [1] (Homo sapiens, THP-1, WST-1, 24 h, 0.5-20 μM, mean ± SD) worked out at 3.06 ± 0.206 µM; in [8] (Homo sapiens, MCF7, WST-1, 24 h, 0.5-20 μM, mean ± SD), 4.61 ± 0.068 µM. In addition, the “effect on cell proliferation” value in assay [1] (THP-1, 0.5-20 μM, 24 h) is given as “inhibit cell growth in both cell lines in a dose-dependent manner”; in assay [8] (MCF-7, 0.5-20 μM, 24 h), “inhibit cell growth in both cell lines in a dose-dependent manner”. Further, the “concentration from which the inhibitory effect on proliferation was statistically significant (p < 0.001)” value in [1] (THP-1, 24 h) turned out to be 2.5 µM; in assay [8] (MCF-7, 24 h), 5 µM. Besides, in assay [2], the “decrease of pro-caspase 3 (inactive form) compared to control” value is “approximately two-fold”. Besides, the “increase of active caspase 3 level in comparison to control” value in assay [2] is “approximately two-fold”. For the same compound, the “cleaved caspase 9 levels” value in assay [3] was “significant increase of cleaved caspase 9 levels”. Besides, the “distribution of cells in cell cycle phases” value is listed as “induced accumulation of cells in G1 phase” in [4] and “induced accumulation of cells in G1 phase” in assay [5] (THP-1, 24 h). For the same compound, in assay [4], the “sub-G1 / sub-diploid population” value is “did not induce any elevation of the sub-G1 peak”. For the same compound, the “increase of sub-G1 peak compared to drug-free control” value in assay [5] (THP-1, 5 µM, 24 h, p < 0.001) was “approximately eight-fold”. Further, the “total protein levels of cyclin B1” value in [6] and in assay [7] was “total protein levels of cyclin B1 were not changed” in each case. In addition, the “expression of cyclin E1” value in assay [9] is “dose-dependent decrease in expression of cyclin E1”.
